According to US7811797B2, “α-isomaltosylglucosaccharide-forming enzyme, process and uses of the same” (Kabushiki Kaisha Hayashibara Seibutsu Kagaku Kenkyujo, priority 2000, dated 2010):

What was measured:
Parameters in all cases: key: −: it showed no change; +: it showed a slight reduction of the color spot of the substrate and the formation of other reaction product; ++: it showed a high reduction of the color spot of the substrate and the formation of other reaction product; +++: it showed a substantial disappearance of the substrate spot and the formation of other reaction product
[1] = tested on: α-isomaltosylglucosaccharide-forming enzyme; experiment: Action on saccharides (substrates), Enzyme of Strain C9; assay type: biochemical, Bacillus globisporus C9; conditions: two units/g substrate, substrate 2% (w/v), 30° C., pH 6.0, 24 hours, TLC
Protocol: (§1) It was tested whether saccharides can be used as substrates for the α-isomaltosylglucosaccharide-forming enzyme. For the purpose, a solution of maltose, maltotriose, maltotetraose, maltopentaose, maltohexaose, maltoheptaose, isomaltose, isomaltotriose, panose, isopanose, trehalose, kojibiose, nigerose, neotrehalose, cellobiose, gentibiose, maltitol, maltotriitol, lactose, sucrose, erlose, selaginose, maltosyl glucoside, or isomaltosyl glucoside was prepared.
(§2) To each of the above solutions was added two units/g substrate of a purified specimen of α-isomaltosylglucosaccharide-forming enzyme from either Bacillus globisporus C9 obtained by the method in Experiment 4-2, Bacillus globisporus C11 obtained by the method in Experiment 7-2, Bacillus globisporus N75 obtained by the method in Experiment 11-2, or Arthrobacter globiformis A19 obtained by the method in Experiment 15-2, and the resulting each solution was adjusted to give a substrate concentration of 2% (w/v) and incubated at 30° C. and pH 6.0, except for using pH 8.4 for the enzyme from Arthrobacter globiformis A19, for 24 hours. The enzyme solutions before and after the enzymatic reactions were respectively analyzed on TLC disclosed in Experiment 1 to confirm whether the enzymes acted on these substrates.

[2] = tested on: α-isomaltosylglucosaccharide-forming enzyme; experiment: Action on saccharides (substrates), Enzyme of Strain C11; assay type: biochemical, Bacillus globisporus C11; conditions: two units/g substrate, substrate 2% (w/v), 30° C., pH 6.0, 24 hours, TLC
Protocol: as §1, §2

[3] = tested on: α-isomaltosylglucosaccharide-forming enzyme; experiment: Action on saccharides (substrates), Enzyme of Strain N75; assay type: biochemical, Bacillus globisporus N75; conditions: two units/g substrate, substrate 2% (w/v), 30° C., pH 6.0, 24 hours, TLC
Protocol: as §1, §2

[4] = tested on: α-isomaltosylglucosaccharide-forming enzyme; experiment: Action on saccharides (substrates), Enzyme of Strain A19; assay type: biochemical, Arthrobacter globiformis A19; conditions: two units/g substrate, substrate 2% (w/v), 30° C., pH 8.4, 24 hours, TLC
Protocol: as §1, §2

Row | Compound | Enzymatic action, Enzyme of Strain C9 [1] | Enzymatic action, Enzyme of Strain C11 [2] | Enzymatic action, Enzyme of Strain N75 [3] | Enzymatic action, Enzyme of Strain A19 [4]
1 | OC[C@H]1O[C@@](CO)(O[C@H]2O[C@H](CO)[C@@H](O[C@H]3O[C@H](CO)[C@@H](O)[C@H](O)[C@H]3O)[C@H](O)[C@H]2O)[C@@H](O)[C@@H]1O [Erlose] | + | + | + | +
2 | OC[C@H]1O[C@H](O[C@H]2[C@H](O)[C@@H](O)[C@@H](OC[C@H]3OC(O)[C@H](O)[C@@H](O)[C@@H]3O)O[C@@H]2CO)[C@H](O)[C@@H](O)[C@@H]1O (stereo partly shown) [Isopanose] | ++ | ++ | ++ | ++
3 | OC[C@H]1O[C@H](O[C@H]2C(O)O[C@H](CO)[C@@H](O)[C@@H]2O)[C@H](O)[C@@H](O)[C@@H]1O (stereo partly shown) [Kojibiose] | + | + | + | +
4 | OC[C@H]1O[C@H](O[C@H]2[C@H](O)[C@@H](O)[C@H](O)O[C@@H]2CO)[C@H](O)[C@@H](O)[C@@H]1O [Maltose] | + | + | + | +
5 | OC[C@H]1O[C@H](O[C@H]2O[C@H](CO)[C@@H](O[C@H]3O[C@H](CO)[C@@H](O)[C@H](O)[C@H]3O)[C@H](O)[C@H]2O)[C@H](O)[C@@H](O)[C@@H]1O [Maltosyl glucoside] | ++ | ++ | ++ | ++
6 | OC[C@H]1O[C@H](O[C@H]2[C@H](O)[C@@H](O)[C@@H](O[C@H]3[C@H](O)[C@@H](O)[C@@H](O[C@H]4[C@H](O)[C@@H](O)C(O)O[C@@H]4CO)O[C@@H]3CO)O[C@@H]2CO)[C@H](O)[C@@H](O)[C@@H]1O (stereo partly shown) [Maltotetraose] | +++ | +++ | +++ | +++
7 | OC[C@@H](O)[C@@H](O[C@H]1O[C@H](CO)[C@@H](O[C@H]2O[C@H](CO)[C@@H](O)[C@H](O)[C@H]2O)[C@H](O)[C@H]1O)[C@H](O)[C@@H](O)CO [Maltotriitol] | + | + | + | +
8 | OC[C@H]1O[C@@H](O[C@H]2O[C@H](CO)[C@@H](O)[C@H](O)[C@H]2O)[C@H](O)[C@@H](O)[C@@H]1O [Neotrehalose] | + | + | + | +
9 | OC[C@H]1O[C@H](O[C@H]2[C@H](O)[C@@H](CO)OC(O)[C@@H]2O)[C@H](O)[C@@H](O)[C@@H]1O (stereo partly shown) [Nigerose] | + | + | + | +
10 | OC[C@H]1O[C@H](OC[C@H]2O[C@H](O[C@H]3[C@H](O)[C@@H](O)C(O)O[C@@H]3CO)[C@H](O)[C@@H](O)[C@@H]2O)[C@H](O)[C@@H](O)[C@@H]1O (stereo partly shown) [Panose] | − | − | − | −
11 | OC[C@H]1O[C@H](O[C@H]2O[C@H](CO)[C@@H](O)[C@H](O)[C@H]2O[C@H]2O[C@H](CO)[C@@H](O)[C@H](O)[C@H]2O)[C@H](O)[C@@H](O)[C@@H]1O [Selaginose] | − | − | − | −
12 | Isomaltosyl glucoside | − | − | − | −
13 | Maltoheptaose | +++ | +++ | +++ | +++
14 | Maltohexaose | +++ | +++ | +++ | +++
15 | Maltopentaose | +++ | +++ | +++ | +++
16 | Maltotriose | ++ | ++ | ++ | ++
